Test results reported in paper PMC4979060, “Structural basis of metallo-β-lactamase, serine-β-lactamase and penicillin-binding protein inhibition by cyclic boronates” (Nature Communications, 2016).

Legend:
OXA-10 = target: T1, OXA-10 (Pseudomonas aeruginosa, UniProt P14489); experiment: Fluorogenic β-lactamase inhibition assay (FC-5 substrate), OXA-10; format: biochemical
T1 construct: made in house; host or cells: E. coli
Description: (§1) Kinetic and inhibition analyses, and ^19F NMR studies[10] against bacterial β-lactamases were performed as described. The FC-5 cephalosporin[9] was used as substrate for BcII, VIM-2, IMP-1, NDM-1, SPM-1, TEM-1 and OXA-10, meropenem[28] for CphA and nitrocefin[34] for PBP 3 and PBP 5.
(§2) In brief IC50 values were determined by preincubation of the appropriate amount of enzyme with the cyclic boronates in the assay buffers for 10 min at room temperature prior to the initiation of the assay by the addition of the appropriate substrate. The enzyme concentrations used are the following: 1 nM BcII, 100 nM VIM-2, 10 nM IMP-1, 10 nM NDM-1, 1 nM SPM-1, 1 nM TEM-1, 1 nM OXA-10, 2.5 nM CphA, 4 μM PBP 3 and 5 μM PBP 5; note that the final concentrations are stated. The assay buffers used are the following: 50 mM HEPES, pH 7.2 supplemented with 1 μg BSA, 1 μg ZnSO4 and 0.01% Triton for BcII, VIM-2, IMP-1, NDM-1 and SPM-1, 15 mM MES, pH 6.5 for CphA, 50 mM HEPES, pH 7.2 supplemented with 200 mM NaCl and 0.01% Triton 100 for TEM-1, 100 mM sodium phosphate, pH 7.2 supplemented with 50 mM NaHCO3 and 0.01% Triton 100 for OXA-10 and 50 mM HEPES, pH 7.2 supplemented with 200 mM NaCl and 0.01% Triton 100 for PBP 3 and PBP 5. The amount of substrates used is the following: 5 μM for BcII, VIM-2, IMP-1, NDM-1 and SPM-1, 10 μM for TEM-1 and OXA-10, 125 μM for CphA and 25 μM for PBP 3 and PBP 5; note that the final concentrations are stated.
(§3) The experiments were performed using a PHERAstar FS microplate reader (BMG Labtech) at room temperature (24–25 °C). All enzymes and inhibitors were prepared in the specific assay buffer. The kinetic values in this study are the means from at least three independent measurements; at least nine different concentrations of the inhibitor were used to determine the kinetic parameters (IC50). The IC50 values were determined using the software package Graph Prism 5.

SPM-1 = SPM-1 (Pseudomonas aeruginosa, UniProt Q8G9Q0); experiment: Fluorogenic β-lactamase inhibition assay (FC-5 substrate), SPM-1; format: biochemical
Description: as §1, §2, §3

HEK293 cells = experiment: Cytotoxicity assay (MTS); format: cell-based; settings: human HEK293 cells, concentrations up to 100 μM, 24 h
Description: HEK293 cells were seeded (2,000 per well) in normal DMEM in 96-well plates.[34] After 24 h, wells were dosed with titrated concentration of compounds in 1% dimethyl sulphoxide (DMSO)—final volume of media about 100 μl. Following a further 24 h incubation period, 20 μl tetrazolium (MTS, CellTiter96Aqueous One Solution (Promega)) was added to the media in each well. The plate was incubated at 37 °C, 5% CO2 for 4 h in the dark before absorbance was read at 490 nm to determine cell proliferation values.

PBP 3 = target: T2, PBP 3 (Pseudomonas aeruginosa, UniProt G3XD46); experiment: PBP inhibition assay (nitrocefin substrate), PBP 3; format: biochemical; settings: NI = no inhibition at 100 μM, read-out: IC50 (μM)/pIC50 (converted)
T2 construct: made in house; host or cells: E. coli
Description: as §1, §2, §3

TEM-1 = target: T3, TEM-1 (Escherichia coli, UniProt P62593); experiment: Fluorogenic β-lactamase inhibition assay (FC-5 substrate), TEM-1; format: biochemical
T3 construct: made in house; host or cells: E. coli
Description: as §1, §2, §3

NDM-1 = target: T4, NDM-1 (Klebsiella pneumoniae, UniProt C7C422); experiment: Fluorogenic β-lactamase inhibition assay (FC-5 substrate), NDM-1; format: biochemical
T4 construct: made in house; host or cells: E. coli
Description: as §1, §2, §3

[1] = system: K. pneumoniae Ecl8 pSU18:NDM-1; experiment: MIC by broth microdilution and checkerboard; format: cell-based; settings: Klebsiella pneumoniae, read-out: 2 MIC, 2 alone; Ecl8 pSU18:NDM-1 (blaSHV-1; blaNDM-1)
Excerpt: (§4) Bacterial strains: E. coli ATCC 25922 (ref. [35]) and K. pneumoniae NCTC 5055 (ref. [36]) were used as reference strains. K. pneumoniae Ecl8 (ref. [16]) and its ramR knock-out[37] were used as previously described. K. pneumoniae strain IR8 (ref. [40]), and E. coli strains IR10 and IR60 (ref. [17]) were generous gifts of Prof. T.R. Walsh. Plasmid pSU18:NDM-1 contains the complete blaNDM-1 open reading frame, together with its promoter, cloned into plasmid pSU18 (ref. [41]). The recombinant plasmid was made by PCR amplifying the blaNDM-1 gene and surrounding sequences from E. coli IR10 with primers NDM1F 5′- […] -3′ and NDM1R 5′- GGCGATGACAGCATCATC -3′, TA cloning the amplicon into pCR2.1 TOPO (Invitrogen) and subcloning into pSU18 using BamHI and XbaI.
(§5) MIC values were determined by broth microdilution, in triplicate, in cation-adjusted Mueller Hinton broth (Sigma) according to the Clinical Laboratory Standards Institute (CLSI) guidelines. Experiments were carried out in microtitre plates (Corning) containing the medium plus meropenem (Sequoia Research Products, Pangbourne, UK) and/or inhibitor 2 as appropriate. Chloramphenicol (20 μg ml^−1) was included in assays of strains (K. pneumoniae Ecl8 and derivative) that carried pSU18 plasmids or derivatives (pSU18:NDM-1) to ensure maintenance of plasmids throughout. Inhibitor 2 was dissolved in DMSO to 100 mg ml^−1 and diluted in broth. The final concentration of DMSO in the assays was kept constant at 0.01% (experiments using 10 μg ml^−1 inhibitor) or 0.03% (experiments using 25 μg ml^−1 inhibitor). Plates were incubated overnight at 37 °C for 18–24 h and absorbance at 600 nm read using a Polarstar Omega (BMG LabTech) plate reader.

K. pneumoniae IR8 = experiment: microbe, parasite or virus in culture; format: cell-based; settings: Klebsiella pneumoniae; 2 alone; K. pneumoniae IR8 (blaSHV-1; blaDHA-1; blaCTX-M-15; blaTEM-1; blaNDM-1); read-out: 2 MIC
Excerpt: as §4, §5

CphA = target: T5, CphA (Aeromonas hydrophila, UniProt P26918); experiment: B2 MBL inhibition assay (meropenem substrate), CphA; format: biochemical, Aeromonas hydrophilia
T5 construct: made in house; host or cells: E. coli
Description: as §1, §2, §3

PBP 5 (dacA) = target: T6, PBP 5 (dacA) (Escherichia coli, UniProt P0AEB2); experiment: PBP inhibition assay (nitrocefin substrate), PBP 5; format: biochemical
T6 construct: made in house; host or cells: E. coli
Description: as §1
In brief IC50 values were determined by preincubation of the appropriate amount of enzyme with the cyclic boronates in the assay buffers for 10 min at room temperature prior to the initiation of the assay by the addition of the appropriate substrate. The enzyme concentrations used are the following: 1 nM BcII, 100 nM VIM-2, 10 nM IMP-1, 10 nM NDM-1, 1 nM SPM-1, 1 nM TEM-1, 1 nM OXA-10, 2.5 nM CphA, 4 μM PBP 3 and 5 μM PBP 5; note that the final concentrations are stated. […]
The experiments were performed using a PHERAstar FS microplate reader (BMG Labtech) at room temperature (24–25 °C). […] The IC50 values were determined using the software package Graph Prism 5.

BcII = target: T7, BcII (Bacillus cereus, UniProt P04190); experiment: Fluorogenic β-lactamase inhibition assay (FC-5 substrate), BcII; format: biochemical
T7 construct: made in house; host or cells: E. coli
Description: as §1, §2, §3

Chain of SPM-1 (Q8G9Q0 entry or part of it): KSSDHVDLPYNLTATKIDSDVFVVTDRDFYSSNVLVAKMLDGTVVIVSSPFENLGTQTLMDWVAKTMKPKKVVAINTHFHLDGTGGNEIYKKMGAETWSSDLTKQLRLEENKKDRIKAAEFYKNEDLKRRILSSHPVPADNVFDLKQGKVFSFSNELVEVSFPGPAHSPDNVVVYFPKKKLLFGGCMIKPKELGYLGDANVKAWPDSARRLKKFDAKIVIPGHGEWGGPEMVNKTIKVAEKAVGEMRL
T3 sequence (P62593 24-286 limits assumed): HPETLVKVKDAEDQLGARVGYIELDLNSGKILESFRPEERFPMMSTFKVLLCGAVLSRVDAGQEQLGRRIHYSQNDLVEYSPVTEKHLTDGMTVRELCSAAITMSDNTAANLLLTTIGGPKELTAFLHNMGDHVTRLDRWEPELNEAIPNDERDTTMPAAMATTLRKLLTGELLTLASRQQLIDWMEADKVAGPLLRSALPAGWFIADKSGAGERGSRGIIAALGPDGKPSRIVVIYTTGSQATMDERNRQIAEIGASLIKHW
T6 sequence (P0AEB2 30-403): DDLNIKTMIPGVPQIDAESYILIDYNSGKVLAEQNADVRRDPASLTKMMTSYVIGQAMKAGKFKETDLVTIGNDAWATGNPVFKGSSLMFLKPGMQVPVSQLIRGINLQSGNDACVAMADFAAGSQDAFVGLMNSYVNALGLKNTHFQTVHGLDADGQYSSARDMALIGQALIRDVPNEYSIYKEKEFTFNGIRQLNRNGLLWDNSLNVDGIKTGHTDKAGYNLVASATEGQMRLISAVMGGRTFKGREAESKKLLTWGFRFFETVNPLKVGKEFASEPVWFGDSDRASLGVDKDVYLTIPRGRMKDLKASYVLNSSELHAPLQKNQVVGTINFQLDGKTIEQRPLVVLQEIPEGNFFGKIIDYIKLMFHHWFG
T7 sequence (P04190 31-257): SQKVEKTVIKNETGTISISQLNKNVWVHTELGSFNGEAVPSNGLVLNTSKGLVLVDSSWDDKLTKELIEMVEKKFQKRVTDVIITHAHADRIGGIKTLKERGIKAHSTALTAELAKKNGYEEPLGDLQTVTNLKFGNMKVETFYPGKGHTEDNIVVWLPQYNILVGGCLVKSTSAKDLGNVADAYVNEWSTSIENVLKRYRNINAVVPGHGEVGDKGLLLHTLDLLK
T4 sequence (C7C422 29-270, looked up, species assumed): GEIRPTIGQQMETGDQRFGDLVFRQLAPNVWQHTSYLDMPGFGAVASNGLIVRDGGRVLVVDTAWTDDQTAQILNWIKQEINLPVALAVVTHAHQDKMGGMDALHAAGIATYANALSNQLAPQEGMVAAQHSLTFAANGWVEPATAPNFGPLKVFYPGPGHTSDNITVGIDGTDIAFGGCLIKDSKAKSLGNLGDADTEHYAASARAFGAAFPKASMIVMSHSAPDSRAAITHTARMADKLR
T1 sequence (P14489 20-266, species assumed): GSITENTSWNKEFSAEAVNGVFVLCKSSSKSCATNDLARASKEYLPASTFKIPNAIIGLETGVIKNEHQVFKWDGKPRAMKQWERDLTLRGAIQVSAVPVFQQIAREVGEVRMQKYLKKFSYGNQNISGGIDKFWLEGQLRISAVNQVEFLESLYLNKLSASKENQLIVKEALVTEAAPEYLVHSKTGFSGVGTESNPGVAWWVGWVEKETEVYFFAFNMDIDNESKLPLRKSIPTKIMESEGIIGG
T5 sequence (P26918 28-254): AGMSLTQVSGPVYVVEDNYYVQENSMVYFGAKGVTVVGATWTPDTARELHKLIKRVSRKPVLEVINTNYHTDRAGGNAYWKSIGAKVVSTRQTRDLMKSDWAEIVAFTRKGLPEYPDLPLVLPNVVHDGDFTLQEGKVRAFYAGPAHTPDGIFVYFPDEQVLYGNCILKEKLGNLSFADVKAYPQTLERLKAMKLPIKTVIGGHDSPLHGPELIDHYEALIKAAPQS
T2 sequence (G3XD46 whole entry): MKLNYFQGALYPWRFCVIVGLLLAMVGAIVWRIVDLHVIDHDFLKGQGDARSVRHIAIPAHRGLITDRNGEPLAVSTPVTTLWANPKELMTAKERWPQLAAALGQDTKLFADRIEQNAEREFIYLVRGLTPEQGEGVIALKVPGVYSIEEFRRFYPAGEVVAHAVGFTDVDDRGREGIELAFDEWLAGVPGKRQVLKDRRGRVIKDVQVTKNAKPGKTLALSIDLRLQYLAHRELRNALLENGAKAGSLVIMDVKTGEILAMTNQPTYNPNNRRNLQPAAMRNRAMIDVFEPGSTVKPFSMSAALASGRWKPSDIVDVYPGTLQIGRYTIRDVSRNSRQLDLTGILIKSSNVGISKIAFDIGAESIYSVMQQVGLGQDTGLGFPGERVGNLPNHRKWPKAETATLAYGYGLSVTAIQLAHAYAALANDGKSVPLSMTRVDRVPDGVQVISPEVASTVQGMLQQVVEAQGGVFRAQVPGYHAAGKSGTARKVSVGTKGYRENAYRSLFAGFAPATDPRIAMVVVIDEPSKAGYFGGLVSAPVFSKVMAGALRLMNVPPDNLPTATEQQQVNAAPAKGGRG

`NCc1ccc(C(=O)N[C@H]2Cc3cccc(C(=O)O)c3O[B-]2(O)O)cc1` [compound 2] was tested. Which pIC50 (OXA-10) did it give?
Its pIC50 is 5.2.

What about the IC50 (OXA-10; 10 min preincubation) of the same compound?
The IC50 was 5.1 µM.

And the pIC50 (SPM-1)?
The pIC50 was 4.7.

And the IC50 (SPM-1; 10 min preincubation)?
The IC50 was 16.7 µM.

And the cytotoxicity (HEK293 cells)?
Its cytotoxicity is “Neither 1 nor 2 showed cytotoxicity”.

And the IC50 (PBP 3)?
Its IC50 is greater than 100 µM.

And the pIC50 (TEM-1)?
Its pIC50 is 8.4.

And the IC50 (TEM-1; 10 min preincubation)?
Its IC50 is 3 nM.

What about the pIC50 (NDM-1) of the same compound?
Its pIC50 is 7.5.

What about the IC50 (NDM-1; 10 min preincubation) of the same compound?
The IC50 was 29 nM.

And the MIC [1]?
The MIC was greater than 128 µg/mL.

What about the MIC (K. pneumoniae IR8) of the same compound?
Its MIC is greater than 128 µg/mL.

And the pIC50 (CphA)?
The pIC50 was greater than 4.

What about the IC50 (CphA; 10 min preincubation) of the same compound?
The IC50 was greater than 100 µM.

And the pIC50 (PBP 5 (dacA))?
The pIC50 was 8.7.

And the IC50 (PBP 5 (dacA); 10 min preincubation)?
Its IC50 is 1.6 nM.

And the pIC50 (BcII)?
Its pIC50 is 6.5.

What about the IC50 (BcII; 10 min preincubation) of the same compound?
Its IC50 is 300 nM.
